# According to PMC12566046, “Arylpiperazinyl-Benzocycloheptapyrrole-Carboxamides Endowed with Dual Anticancer and Antiviral Activities” (Molecules, 2025):
# Like-named read-outs stand apart in the source and are kept apart here.
# Assays:
# [1] = tested on: NCI cancer panel (all cell lines); assay: NCI-60 five-dose assay, overall mean graph midpoint (MG_MID); type: cell-based, human
# Experimental: (§1) Due to these preliminary results, six compounds, 1, 5, 10, 11, 17, and 20, were selected for the five-dose screen NCI-programme against the same panel of tumour cell lines.
# (§2) Next, a mean graph midpoint (MG_MD) was calculated for compounds 1, 5, 10, 11, 17, and 20 and reported as waterfall graphs GI50, TGI, and LC50 in the Supplementary Materials (Figures S69–S86). In Table 9, we reported the average GI50 for the nine-cancer panels, underlining both the activity and selectivity for compounds 1, 10, 11, and 20.
# [2] = tested on: SK-MEL-2 (melanoma cell line); assay: NCI-60 five-dose assay
# [3] = tested on: RXF 393 (renal cancer cells); assay: NCI-60 five-dose assay; type: cell-based, human; conditions: five-dose screen
# [4] = tested on: HT29 (colon cancer cell line); assay: NCI-60 five-dose assay; type: cell-based, human; conditions: read-out: Growth inhibition 50 (GI50)
# [5] = tested on: UACC-257 (melanoma cell line); assay: NCI-60 five-dose assay
# [6] = tested on: SK-MEL-28 (melanoma cell line); assay: NCI-60 five-dose assay
# [7] = tested on: HCT-116 (colon cancer cell line); assay: NCI-60 five-dose assay; type: cell-based, human; conditions: five doses (10^−4–10^−8 M), read-out: Growth inhibition 50 (GI50)
# [8] = tested on: HL-60(TB) (leukemia cell line); assay: NCI-60 five-dose assay; type: cell-based, human; conditions: five doses (10^−4–10^−8 M), read-out: Growth inhibition 50 (GI50)
# [9] = tested on: HOP-92 (non-small cell lung cancer); assay: NCI-60 five-dose assay; type: cell-based, human; conditions: five-dose screen
# Description: (§3) We first evaluated the cytotoxic activity of tricyclic-pyrrole carboxamides 1–20 using the NCI-60 cell line panel, representing nine different human cancers: leukemia, melanoma, and cancers of the lung, colon, central nervous system (CNS), ovary, kidney, prostate, and breast (the one-dose graph for compounds 1–20 is reported in Supplementary Materials, Figures S43–S62). Compounds 1, 5, 10, 11, 17, and 20 satisfied pre-determined threshold inhibition criteria in a minimum number of cell lines; therefore, they were also tested in the full five-dose assay (Figures S63–S68 in the Supplementary Materials).
# as §1
# MCF-7 (breast cancer) = assay: NCI-60 five-dose assay; type: cell-based, human; conditions: five-dose screen
# Description: as §3, §1
# [10] = tested on: MALME-3M (melanoma cell line); assay: NCI-60 five-dose assay; conditions: for GI50: read-out: Growth inhibition 50 (GI50); for CC50: read-out: LC50 (molar concentration leading to 50% net cell death)
# [11] = tested on: MDA-MB-435 (melanoma cell line); assay: NCI-60 five-dose assay
# [12] = tested on: K-562 (leukemia cell line); assay: NCI-60 five-dose assay; type: cell-based, human; conditions: read-out: Growth inhibition 50 (GI50)
# [13] = tested on: HCC-2998 (colon cancer cell line); assay: NCI-60 five-dose assay; type: cell-based, human; conditions: five doses (10^−4–10^−8 M), read-out: Growth inhibition 50 (GI50)
# M14 (melanoma cell line) = assay: NCI-60 five-dose assay
# Leukemia panel = assay: NCI-60 five-dose assay, panel-level GI50 (mean graph midpoint, range); type: cell-based, human
# Experimental: as §1, §2
# Colon Cancer panel = assay: as above; type: cell-based, human
# Experimental: as §1, §2
# Melanoma panel = assay: as above; type: cell-based, human
# Experimental: as §1, §2
# SR (leukemia cell line) = assay: NCI-60 five-dose assay; type: cell-based, human; conditions: five doses (10^−4–10^−8 M), read-out: Growth inhibition 50 (GI50)
# [14] = tested on: UACC-62 (melanoma cell line); assay: NCI-60 five-dose assay
# [15] = tested on: LOX IMVI (melanoma cell line); assay: NCI-60 five-dose assay; conditions: for CC50: read-out: LC50 (molar concentration leading to 50% net cell death)
# [16] = tested on: SW-620 (colon cancer cell line); assay: NCI-60 five-dose assay; type: cell-based, human
# [17] = tested on: KM12 (colon cancer cell line); assay: NCI-60 five-dose assay; type: cell-based, human; conditions: five doses (10^−4–10^−8 M), read-out: Growth inhibition 50 (GI50)
# [18] = tested on: HCT-15 (colon cancer cell line); assay: NCI-60 five-dose assay; type: cell-based, human; conditions: five doses (10^−4–10^−8 M), read-out: Growth inhibition 50 (GI50)
# [19] = tested on: MDA-MB-468 (breast cancer); assay: NCI-60 five-dose assay; type: cell-based, human; conditions: five-dose screen
# [20] = tested on: NCI-H460 (non-small cell lung cancer); assay: NCI-60 five-dose assay; type: cell-based; conditions: Homo sapiens, five-dose screen
# [21] = tested on: SF-295 (CNS cancer cell line); assay: NCI-60 single-dose assay; type: cell-based, human; conditions: human
# Procedure, shortened: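 NCI-60 one-dose format: each compound is tested at a single dose against human tumour lines for cytotoxic effect.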
molecule,measurement,setting,value
"N-(3-(4-Benzylpiperazin-1-yl)propyl)-2-chloro-1,4,5,6-tetrahydrobenzo[6,7]cyclohepta[1,2-b]pyrrole-2-carboxamide [Compound 11]",GI50,"[1]; MG_MID over all panels, read-out: GI50 mean graph midpoint (MG_MID)",4470 nM
same,TGI (molar concentration giving total growth inhibition),[2]; SK-MEL-2,20890 nM
same,GI50,"[2]; read-out: Growth inhibition 50 (GI50), SK-MEL-2, five doses (10^−4–10^−8 M)",7850 nM
same,CC50,"[2]; read-out: LC50 (molar concentration leading to 50% net cell death), SK-MEL-2",47900 nM
same,GI50,[3],1960 nM
same,GI50,[4]; five doses (10^−4–10^−8 M),2600 nM
same,TGI (molar concentration giving total growth inhibition),[5]; UACC-257,3390 nM
same,GI50,"[5]; read-out: Growth inhibition 50 (GI50), UACC-257, five doses (10^−4–10^−8 M)",1740 nM
same,CC50,"[5]; read-out: LC50 (molar concentration leading to 50% net cell death), UACC-257",6610 nM
same,TGI (molar concentration giving total growth inhibition),[6]; SK-MEL-28,3310 nM
same,GI50,"[6]; read-out: Growth inhibition 50 (GI50), SK-MEL-28, five doses (10^−4–10^−8 M)",1750 nM
same,CC50,"[6]; read-out: LC50 (molar concentration leading to 50% net cell death), SK-MEL-28",6160 nM
same,GI50,[7],3370 nM
same,GI50,[8],2920 nM
same,GI50,[9],2720 nM
same,GI50,MCF-7 (breast cancer),2770 nM
same,TGI (molar concentration giving total growth inhibition),[10]; MALME-3M,3480 nM
same,GI50,"[10]; MALME-3M, five doses (10^−4–10^−8 M)",1900 nM
same,CC50,[10]; MALME-3M,6460 nM
same,TGI (molar concentration giving total growth inhibition),[11]; MDA-MB-435,7410 nM
same,GI50,"[11]; read-out: Growth inhibition 50 (GI50), MDA-MB-435, five doses (10^−4–10^−8 M)",2590 nM
same,CC50,"[11]; read-out: LC50 (molar concentration leading to 50% net cell death), MDA-MB-435",30200 nM
same,GI50,[12]; five doses (10^−4–10^−8 M),2570 nM
same,GI50,[13],1730 nM
same,TGI (molar concentration giving total growth inhibition),M14 (melanoma cell line); M14,3550 nM
same,GI50,"M14 (melanoma cell line); read-out: Growth inhibition 50 (GI50), M14, five doses (10^−4–10^−8 M)",1830 nM
same,CC50,"M14 (melanoma cell line); read-out: LC50 (molar concentration leading to 50% net cell death), M14",6920 nM
same,GI50,"Leukemia panel; Leukemia panel average, read-out: GI50 mean graph midpoint (MG_MID)",2880 nM
same,GI50,"Colon Cancer panel; Colon Cancer panel average, read-out: GI50 mean graph midpoint (MG_MID)",2810 nM
same,GI50,"Melanoma panel; Melanoma panel average, read-out: GI50 mean graph midpoint (MG_MID)",2340 nM
same,GI50,SR (leukemia cell line),2490 nM
same,TGI (molar concentration giving total growth inhibition),[14]; UACC-62,9770 nM
same,GI50,"[14]; read-out: Growth inhibition 50 (GI50), UACC-62, five doses (10^−4–10^−8 M)",2550 nM
same,CC50,"[14]; read-out: LC50 (molar concentration leading to 50% net cell death), UACC-62",31600 nM
same,TGI (molar concentration giving total growth inhibition),[15],5130 nM
same,GI50,"[15]; read-out: Growth inhibition 50 (GI50), five doses (10^−4–10^−8 M)",2160 nM
same,CC50,[15],15800 nM
same,GI50,"[16]; SW-620, five doses (10^−4–10^−8 M), read-out: Growth inhibition 50 (GI50)",3570 nM
same,GI50,[17],4110 nM
same,GI50,[18],3650 nM
same,GI50,[19],2690 nM
"CCN1CCC[C@H]1CNC(=O)c1[nH]c2c(c1Cl)CCCc1ccccc1-2 [Compound 1, (S)-3-Chloro-N-(1-ethyl-2-pyrrolidinylmethyl)-5,6-dihydro-4H-benzo[6,7]cyclohepta[1,2-b]pyrrol-2-carboxamide]",GI50,"[1]; Homo sapiens, MG_MID over all panels, read-out: GI50 mean graph midpoint (MG_MID)",4260 nM
same,GI50,"[1]; Homo sapiens, all cell lines, read-out: MG_MID Log10 GI50 (converted)",4790 nM
same,GI50,"[2]; Homo sapiens, SK-MEL-2, read-out: Growth inhibition 50 (GI50)",9380 nM
same,CC50,"[2]; Homo sapiens, SK-MEL-2, read-out: LC50 (molar concentration leading to 50% net cell death)",46800 nM
same,TGI (molar concentration giving total growth inhibition),[2]; SK-MEL-2,21340 nM
same,GI50,[3]; Homo sapiens,2700 nM
same,GI50,[20],2030 nM
same,GI50,"[4]; Homo sapiens, HT-29, five doses (10^−4–10^−8 M)",1860 nM
same,GI50,"[5]; Homo sapiens, UACC-257, read-out: Growth inhibition 50 (GI50)",1880 nM
same,CC50,"[5]; Homo sapiens, UACC-257, read-out: LC50 (molar concentration leading to 50% net cell death)",8510 nM
same,TGI (molar concentration giving total growth inhibition),[5]; UACC-257,3980 nM
same,GI50,"[6]; Homo sapiens, SK-MEL-28, read-out: Growth inhibition 50 (GI50)",1870 nM
same,CC50,"[6]; Homo sapiens, SK-MEL-28, read-out: LC50 (molar concentration leading to 50% net cell death)",7240 nM
same,GI50,[7]; Homo sapiens,3120 nM
same,GI50,[8]; Homo sapiens,2600 nM
same,GI50,"[10]; Homo sapiens, Malme-3M",1540 nM
same,CC50,"[10]; Homo sapiens, Malme-3M",5620 nM
same,TGI (molar concentration giving total growth inhibition),[10]; MALME-3M,2950 nM
same,GI50,"[11]; Homo sapiens, MDA-MB-435, read-out: Growth inhibition 50 (GI50)",1760 nM
same,CC50,"[11]; Homo sapiens, MDA-MB-435, read-out: LC50 (molar concentration leading to 50% net cell death)",5620 nM
same,TGI (molar concentration giving total growth inhibition),[11]; MDA-MB-435,3550 nM
same,GI50,"[12]; Homo sapiens, K562, five doses (10^−4–10^−8 M)",1760 nM
same,GI50,[13]; Homo sapiens,2980 nM
same,GI50,"M14 (melanoma cell line); Homo sapiens, M14, read-out: Growth inhibition 50 (GI50)",2030 nM
same,CC50,"M14 (melanoma cell line); Homo sapiens, M14, read-out: LC50 (molar concentration leading to 50% net cell death)",9120 nM
same,TGI (molar concentration giving total growth inhibition),M14 (melanoma cell line); M14,4360 nM
same,GI50,"Leukemia panel; Homo sapiens, Leukemia panel average, read-out: GI50 mean graph midpoint (MG_MID)",2810 nM
same,GI50,"Leukemia panel; Homo sapiens, Leukemia panel, read-out: average GI50 (mean graph midpoint)",2820 nM
same,GI50,"Leukemia panel; Homo sapiens, five-dose screen, cell lines as named in the sentence, read-out: GI50, range over leukemia cell lines",1760 to 5960 nM
same,GI50,"Colon Cancer panel; Homo sapiens, Colon Cancer panel average, read-out: GI50 mean graph midpoint (MG_MID)",2340 nM
same,GI50,"Colon Cancer panel; Homo sapiens, five-dose screen, read-out: GI50, range over colon cancer cell lines",1800 to 3120 nM
same,GI50,"Melanoma panel; Homo sapiens, Melanoma panel average, read-out: GI50 mean graph midpoint (MG_MID)",2140 nM
same,GI50,"Melanoma panel; Homo sapiens, five-dose screen, number of cell lines as named in the sentence, read-out: GI50, range over melanoma cell lines",1540 to 2030 nM
same,growth inhibition (GI%) and cytotoxicity (negative values),[21],−24.35%
same,GI50,SR (leukemia cell line); Homo sapiens,2290 nM
same,GI50,"[14]; Homo sapiens, UACC-62, read-out: Growth inhibition 50 (GI50)",1870 nM
same,CC50,"[14]; Homo sapiens, UACC-62, read-out: LC50 (molar concentration leading to 50% net cell death)",8320 nM
same,TGI (molar concentration giving total growth inhibition),[14]; UACC-62,3980 nM
same,TGI (molar concentration giving total growth inhibition),[15],3390 nM
same,GI50,"[15]; Homo sapiens, read-out: Growth inhibition 50 (GI50)",1760 nM
same,CC50,[15]; Homo sapiens,6310 nM
same,GI50,"[16]; Homo sapiens, SW-620, read-out: Growth inhibition 50 (GI50)",1750 nM
same,GI50,[17]; Homo sapiens,3020 nM
same,GI50,[18]; Homo sapiens,2310 nM
same,GI50,[19]; Homo sapiens,2680 nM
